Assays:
[1] = test system: tubulin isolated from calf brain; experiment: Tubulin polymerization assay; format: biochemical; conditions: based on EC0.01
Protocol: Tubulin polymerization assay: the potency required for the test compound and paclitaxel to polymerize tubulin isolated from calf brain was evaluated by published techniques. The effective concentration (EC0.01) was defined as the interpolated concentration capable of inducing an initial slope of optical density (OD) of 0.01 OD/minute rate and is calculated using the formula: EC0.01=concentration/slope. EC0.01 values are expressed as the mean with standard deviation obtained from 3 different concentrations.

[2] = test system: clonogenic tumor cells; experiment: Clonogenic cell colony-formation assay (IC90); format: cell-based; conditions: clonogenic cytotoxicity assay; read-out: concentration needed to kill 90% of clonogenic cancer cells (IC90)
Protocol: Clonogenic cell colony-formation assay: the potency required for the test compound and paclitaxel to kill clonogenic tumor cells (cells that are able to divide indefinitely to form a colony) in vitro was evaluated by a colony formation assay. The concentration needed to kill 90% of clonogenic cancer cells (IC90) was determined.

[3] = test system: HCT116/VM46, A2780Tax and Pat-7 cell lines; experiment: Cytotoxicity against cell lines that had developed resistance to paclitaxel (FIG. 2); format: cell-based, human
Protocol: (§1) The concentration needed to kill 90% of clonogenic cancer cells (IC90) was determined.

[4] = test system: Pat-7 human ovarian carcinoma; experiment: In vivo antitumor testing, Pat-7 xenograft; design: species or system nude mice
Excerpt: (§2) In Vivo Antitumor Testing: The following human tumors were used: ovarian carcinoma A2780, A2780Tax and Pat-7 (established from an ovarian tumor biopsy from a patient who had developed resistance to paclitaxel); HCT116, HCT116/VM46 and LS174T colon carcinomas, Pat-21 breast carcinoma, and Pat-26 pancreatic carcinoma (from a liver metastasis biopsy). Pat-7, Pat-21 ad Pat-26 xenografts were established initially from primary tumor biopsies directly as xenotransplants grown in whole-body irradiated nude mice without any intervening in vitro cell culturing steps. The innately paclitaxel-insensitive murine fibrosarcoma M5076 was also employed. The human tumor xenografts were maintained in Balb/c nu/nu nude mice. M5076 was maintained in C57BL/6 mice. Tumors were propagated as subcutaneous transplants in the appropriate mouse strain using tumor fragments obtained from donor mice. Tumor passage occurred biweekly for murine tumors and approximately every two to eight weeks for the various human tumor lines. With regard to efficacy testing, M5076 tumors were implanted in (C57B1/6×DBA/2)F1 hybrid mice, and human tumors were implanted in nude mice. All tumor implants for efficacy testing were subcutaneous (sc).
The required number of animals needed to detect a meaningful response (6-8) were pooled at the start of the experiment and each was given a subcutaneous implant of a tumor fragment (˜50 mg) with a 13-gauge trocar. For treatment of early-stage tumors, the animals were again pooled before distribution to the various treatment and control groups. For treatment of animals with advanced-stage disease, tumors were allowed to grow to the pre-determined size window (tumors outside the range were excluded) and animals were evenly distributed to various treatment and control groups. Treatment of each animal was based on individual body weight. Treated animals were checked daily for treatment related toxicity/mortality. Each group of animals was weighed before the initiation of treatment (Wt1) and then again following the last treatment dose (Wt2).
Tumor weights (mg) were estimated from the formula: […]
The maximum tolerated dose (MTD) is defined as the dose level immediately above which excessive toxicity (i.e. more than one death) occurred. […] Activity is described at the OD.
Tumor response end-point was expressed in terms of tumor growth delay (T-C value), defined as the difference in time (days) required for the treated tumors (T) to reach a predetermined target size compared to those of the control group (C).

[5] = test system: HCT116 and A2780 tumor cell lines; experiment: Clonogenic cell colony-formation assay, paclitaxel-sensitive lines; format: cell-based, human; conditions: two sensitive tumor cell lines (HCT116 and A2780)
Protocol: as §1

[6] = test system: panel of tumor cell lines; experiment: In vitro cytotoxicity, tetrazolium-based colorimetric assay; conditions: read-out: median cytotoxic concentration (IC50 values); 21 cell lines tested; 72 h incubation; FIG. 1
Protocol: (§4) For administration to rodents, the subject compound was administered in either 1:9 ethanol/water, or 1:1:8 Cremophor®/ethanol/water. Final dilution for parenteral administration was made with water one hour before administration. Final dilution for oral administration was made with 0.25 M sodium phosphate buffer. Paclitaxel was dissolved in a 50/50 mixture of ethanol and Cremophor® and maintained at 4° C. Final dilution was made immediately prior to injection to prevent undesirable precipitation. Tumor cell lines HCT 116 human carcinoma and HCT116/V/M46 cells were maintained on McCoy's medium and 10% heat-inactivated fetal bovine serum. A2780 human ovarian carcinoma cells and A2780Tax cells were maintained in IMEM and 10% heat-inactivated fetal bovine serum. All other cell lines were maintained in RPM11640 medium with 10% heat-inactivated fetal bovine serum.
The in vivo cytotoxicity was assessed in tumor cells by a tetrazolium-based colorimetric assay at 492 nm. The cells were seeded 24 h prior to drug addition. The reagents were added following a 72 h incubation with serially diluted test compound. Measurements were taken after a further three hours incubation. The results are expressed as median cytotoxic concentration (IC50 values).

[7] = test system: A2780 human ovarian carcinoma; HCT116 and LS 174T human colon carcinoma; experiment: In vivo antitumor testing, paclitaxel-sensitive xenografts; design: species or system nude mice; conditions: three paclitaxel-sensitive human tumor xenografts
Excerpt: as §2, with “Tumor passage occurred biweekly for murine tumors and approximately every two to eight weeks for the various human tumor lines. With regard to efficacy testing, M5076 tumors were implanted in (C57B1/6×DBA/2)F1 hybrid mice, and human tumors were implanted in nude mice. All tumor implants for efficacy testing were subcutaneous (sc).” left out
(§3) The required number of animals needed to detect a meaningful response (6-8) were pooled at the start of the experiment and each was given a subcutaneous implant of a tumor fragment (˜50 mg) with a 13-gauge trocar. […] For treatment of animals with advanced-stage disease, tumors were allowed to grow to the pre-determined size window (tumors outside the range were excluded) and animals were evenly distributed to various treatment and control groups. […]

[8] = test system: Pat-7, A2780Tax, HCT116/VM46, Pat-21 and M5076 tumors; experiment: In vivo antitumor testing, paclitaxel-resistant tumors; design: species or system mice; conditions: all five paclitaxel-resistant tumors (four human and one murine)
Excerpt: as §2, with “Tumor passage occurred biweekly for murine tumors and approximately every two to eight weeks for the various human tumor lines. With regard to efficacy testing, M5076 tumors were implanted in (C57B1/6×DBA/2)F1 hybrid mice, and human tumors were implanted in nude mice. All tumor implants for efficacy testing were subcutaneous (sc).” left out
as §3

[9] = test system: human tumor xenografts; experiment: Antitumor activity by oral route of administration; format: in vivo, mice or rats; conditions: two different human tumor xenografts
Protocol: as §4

[10] = test system: human tumor xenografts; conditions: general statement; cited from earlier work

SMILES | tubulin polymerization potency relative to paclitaxel [1] | IC90 [2] [nM] | retention of cytotoxic potency in resistant versus sensitive lines ([3]; HCT116/VM46, A2780Tax and Pat-7 compared to the sensitive lines) | cytotoxicity compared with paclitaxel ([3]; three cell lines that had developed resistance to paclitaxel, FIG. 2) | LCK ([4]; PO, every 2 days x 5, at MTD, pH 8.0 buffered vehicle, first of two experiments) [LCK] | LCK ([4]; PO, every 2 days x 5, at MTD, pH 8.0 buffered vehicle, second of two experiments) [LCK] | oral antitumor activity ([4]; PO, every 2 days x 5 schedule) | potency in killing clonogenic cells compared with paclitaxel [5] | IC50 [6] [nM] | antitumor activity compared with paclitaxel [7] | antitumor efficacy compared with paclitaxel [8] | antitumor activity given orally compared with IV administration [9] | activity when administered by the oral route [10] | LCK ([4]; IV, optimal dose and schedule, concomitantly tested, first of two experiments) [LCK] | LCK ([4]; IV, optimal dose and schedule, concomitantly tested, second of two experiments) [LCK]
C/C(=C\c1csc(C)n1)[C@@H]1CC2O[C@]2(C)CCC[C@H](C)[C@H](O)[C@@H](C)C(=O)C(C)(C)[C@@H](O)CC(=O)N1 (relative stereo) [test compound, [1 S-[1R*,3R*(E),7R*,10S*,11R*,12R*,16S*]]-7,11-1-Dihydroxy-8,8,10,12,16-pentamethyl-3-[1-methyl-2-(2-methyl-4-thiazolyl)ethenyl]-4-aza-17-oxabicyclo[14.1.0]heptadecane-5,9-dione] | about 2.5 fold | ~7.5 | almost completely retaining its cytotoxic potency | far better than paclitaxel | 3.1 | 2.5 | highly active orally | similarly potent | 1.4 to 34.5 | equivalent to paclitaxel | more efficacious than paclitaxel | equivalent to that produced by IV drug administration |  |  | 
CC(=O)O[C@H]1C(=O)[C@@]2(C)[C@H]([C@H](OC(=O)c3ccccc3)[C@]3(O)C[C@H](OC(=O)[C@H](O)[C@@H](NC(=O)c4ccccc4)c4ccccc4)C(C)=C1C3(C)C)[C@]1(OC(C)=O)CO[C@@H]1C[C@@H]2O [paclitaxel, reference compound] |  |  |  |  |  |  |  |  |  |  |  |  | typically inactive | 1.3 | 1.2

Source: patent publication US6686380B2, “Treatment of refractory tumors using epothilone derivatives” (Bristol-Myers Squibb Company, priority 2001, dated 2004)
